Measurements published in publication PMC6804006, “Synthesis, Biological Activities and Docking Studies of Novel 4-(Arylaminomethyl)benzamide Derivatives as Potential Tyrosine Kinase Inhibitors” (Molecules, 2019).

Assays:
[1] = tested on: K-562 (chronic myelogenous leukemia); test: MTT anti-proliferative assay, K-562; type: cell-based; conditions: Homo sapiens, K562, 48 h, 50% growth inhibition
Experimental: (§1) Each in vitro experiment was performed at least in triplicate, and the standard deviation of absorbance was less than 10% of the mean. For the in vitro assays, a stock solution (1% DMSO in the appropriate buffer with the tested compound diluted under sonication) was prepared from which several dilutions were made with the appropriate buffer.
(§2) Human cell lines were obtained from the Institute of Cytology, Russian Academy of Sciences. […] Cellular sensitivities to clofarabine and its lipid derivatives were measured with the MTT assay. Cells were plated in triplicate in 96-well plates (10^5 cells/well for suspended cell cultures and 5 × 10^3 cells/well for monolayer cultures); on the same day (suspended cell cultures) or on the following day (monolayer cultures), compounds were added at the appropriate dilutions. Plates were incubated under standard conditions for 48 h. Thereafter, 10 μL of MTT (Sigma) in phosphate-buffered saline (5 mg/mL) was added. The plates were incubated for an additional 4 h, and 150 μL of dimethyl sulfoxide (DMSO) was added to dissolve the formazan crystals. The optical density was read on a HALO MPR-95 Microplate Reader (Dynamica Scientific Ltd., Australia) at 570 nm. The antiproliferative effects were determined as degrees of inhibition of tumor cells (%).

[2] = tested on: HL-60 (promyelocytic leukemia); test: MTT anti-proliferative assay, HL-60; type: cell-based, human; conditions: Homo sapiens, HL-60, 48 h, 50% growth inhibition
Experimental: as §1, §2

[3] = tested on: RPMI 1788 (B lymphocyte, human normal cells); test: MTT assay on normal cells RPMI 1788; type: cell-based; conditions: MTT 48 h
Experimental: as §1
Human cell lines were obtained from the Institute of Cytology, Russian Academy of Sciences. The cell lines studied were maintained in RPMI 1640 medium (AppliChem, Darmstadt, Germany) supplemented with 20% (HL-60, RPMI 1788) fetal calf serum (HyClone, Cramlington, UK), in DMEM (A 549) and Eagle’s MEM (AppliChem) (MCF7, HeLa) with 10% fetal calf serum (HyClone). Cells were cultivated at 37 °C in a humidified atmosphere of 5% CO2. Cellular sensitivities to clofarabine and its lipid derivatives were measured with the MTT assay. Cells were plated in triplicate in 96-well plates (10^5 cells/well for suspended cell cultures and 5 × 10^3 cells/well for monolayer cultures); on the same day (suspended cell cultures) or on the following day (monolayer cultures), compounds were added at the appropriate dilutions. Plates were incubated under standard conditions for 48 h. Thereafter, 10 μL of MTT (Sigma) in phosphate-buffered saline (5 mg/mL) was added. The plates were incubated for an additional 4 h, and 150 μL of dimethyl sulfoxide (DMSO) was added to dissolve the formazan crystals. The optical density was read on a HALO MPR-95 Microplate Reader (Dynamica Scientific Ltd., Australia) at 570 nm. The antiproliferative effects were determined as degrees of inhibition of tumor cells (%).

EGFR = target: T1, EGFR (Homo sapiens, UniProt P00533); test: ADP-Glo kinase inhibitory assay, EGFR; type: biochemical; conditions: for inhibition at 0.01 µM: read-out: % Inhibition at 10 nM, EGFR
T1 construct: purchased Promega
Experimental: (§3) We investigated the kinase selectivity of targeted compounds against eight receptor tyrosine kinases including EGFR (epidermal growth factor receptor), HER-2 and HER4 (human epidermal growth factor receptor), IGF1R (insulin like growth factor 1 receptor), InsR (gene insulin receptor), KDR (kinase insert domain receptor), and PDGFRa and PDGFRb (platelet-derived growth factor receptors). The assay was performed using the Kinase-Glo Plus luminescence kinase assay kit (TK-1+ADP-Glo™, Promega, San Diego, CA, USA). It measures kinase activity by quantitating the amount of ATP remaining in solution following a kinase reaction.
(§4) The assay was performed using a Kinase Selectivity Profiling System (TK-1+ADP-Glo™ Assay and TK-2+ADP-Glo™ Assay, Promega), where the kinase activity was measured by quantifying the amount of ADP produced during a kinase reaction. The assay is performed in two steps; firstly, after the kinase reaction, an equal volume of ADP-Glo™ Reagent is added to terminate the kinase reaction and deplete the remaining ATP. Secondly, the Kinase Detection Reagent is added to simultaneously convert ADP to ATP and allow the newly synthesized ATP to be measured using a luciferase/luciferin reaction. The luminescent signal generated is proportional to the ADP concentration produced and is correlated with kinase activity. Our compounds were diluted with kinase buffer (5% DMSO), and 1 μL of the dilution was added to a 5-μL reaction so that the final concentration of DMSO was 1% in all of reactions. All of the enzymatic reactions were conducted at 23 °C for 60 min. The 5-μL reaction mixture contained 1µL of the compound solution, 2µL of the enzyme solution, and 2 µL of kinase substrate. After the enzymatic reaction, 5 µL of ADP-Glo™ Reagent (Promega, USA) was added to each reaction, and the plate was incubated for 40 min at 23 °C. Then, 10 µL of Kinase Detection Reagent (Promega, USA) was added to each reaction, and the plate was incubated for 30 min at 23 °C. Luminescence signal was measured using an Infinite M 200 plate reader (Tecan, Switzerland).
(§5) Kinase activity assays were performed in duplicate at each concentration. The luminescence data were analyzed using the computer software, Magellan™. The difference between luminescence intensities in the absence of Kinase (Lut) and in the presence of Kinase (Luc) was defined as 100% activity (Lut − Luc).

HER-2 = target: T2, HER-2 (Homo sapiens, UniProt P04626); test: ADP-Glo kinase inhibitory assay, HER-2; type: biochemical; conditions: for inhibition at 0.01 µM: read-out: % Inhibition at 10 nM, HER-2
T2 construct: purchased Promega
Experimental: as §3, §4, §5

HER-4 = target: T3, HER-4 (Homo sapiens, UniProt Q15303); test: ADP-Glo kinase inhibitory assay, HER-4; type: biochemical; conditions: for inhibitory activity in relation to HER-4, in words: compared with imatinib; for inhibition at 0.01 µM: read-out: % Inhibition at 10 nM, HER-4
T3 construct: purchased Promega
Experimental: as §3, §4, §5

IGF1R = target: T4, IGF1R (Homo sapiens, UniProt P08069); test: ADP-Glo kinase inhibitory assay, IGF1R; type: biochemical; conditions: for inhibition at 0.01 µM: read-out: % Inhibition at 10 nM, IGF1R
T4 construct: purchased Promega
Experimental: as §3, §4, §5

InsR = target: T5, InsR (Homo sapiens, UniProt P06213); test: ADP-Glo kinase inhibitory assay, InsR; type: biochemical; conditions: for inhibition at 0.01 µM: read-out: % Inhibition at 10 nM, InsR
T5 construct: purchased Promega
Experimental: as §3, §4, §5

KDR (VEGFR2) = target: T6, KDR (VEGFR2) (Homo sapiens, UniProt P35968); test: ADP-Glo kinase inhibitory assay, KDR; type: biochemical; conditions: for inhibition at 0.01 µM: 10 nM
T6 construct: purchased Promega
Experimental: as §3
Vascular endothelial growth factor receptor 2 (VEGFR2), also called kinase insert domain receptor (KDR), is a tyrosine kinase receptor for VEGFs that plays a central role in tumor angiogenesis; therefore, the inhibition of VEGFR2 is a promising therapeutic strategy for inhibiting angiogenesis and tumor growth.
as §4, §5

PDGFRa = target: T7, PDGFRa (Homo sapiens, UniProt P16234); test: ADP-Glo kinase inhibitory assay, PDGFRa; type: biochemical; conditions: for inhibition at 0.01 µM: read-out: % Inhibition at 10 nM, PDGFRa
T7 construct: purchased Promega
Experimental: as §3, §4, §5

PDGFRb = target: T8, PDGFRb (Homo sapiens, UniProt P09619); test: ADP-Glo kinase inhibitory assay, PDGFRb; type: biochemical; conditions: for inhibition at 0.01 µM: read-out: % Inhibition at 10 nM, PDGFRb
T8 construct: purchased Promega
Experimental: as §3, §4, §5

T4 sequence (P08069 31-1367): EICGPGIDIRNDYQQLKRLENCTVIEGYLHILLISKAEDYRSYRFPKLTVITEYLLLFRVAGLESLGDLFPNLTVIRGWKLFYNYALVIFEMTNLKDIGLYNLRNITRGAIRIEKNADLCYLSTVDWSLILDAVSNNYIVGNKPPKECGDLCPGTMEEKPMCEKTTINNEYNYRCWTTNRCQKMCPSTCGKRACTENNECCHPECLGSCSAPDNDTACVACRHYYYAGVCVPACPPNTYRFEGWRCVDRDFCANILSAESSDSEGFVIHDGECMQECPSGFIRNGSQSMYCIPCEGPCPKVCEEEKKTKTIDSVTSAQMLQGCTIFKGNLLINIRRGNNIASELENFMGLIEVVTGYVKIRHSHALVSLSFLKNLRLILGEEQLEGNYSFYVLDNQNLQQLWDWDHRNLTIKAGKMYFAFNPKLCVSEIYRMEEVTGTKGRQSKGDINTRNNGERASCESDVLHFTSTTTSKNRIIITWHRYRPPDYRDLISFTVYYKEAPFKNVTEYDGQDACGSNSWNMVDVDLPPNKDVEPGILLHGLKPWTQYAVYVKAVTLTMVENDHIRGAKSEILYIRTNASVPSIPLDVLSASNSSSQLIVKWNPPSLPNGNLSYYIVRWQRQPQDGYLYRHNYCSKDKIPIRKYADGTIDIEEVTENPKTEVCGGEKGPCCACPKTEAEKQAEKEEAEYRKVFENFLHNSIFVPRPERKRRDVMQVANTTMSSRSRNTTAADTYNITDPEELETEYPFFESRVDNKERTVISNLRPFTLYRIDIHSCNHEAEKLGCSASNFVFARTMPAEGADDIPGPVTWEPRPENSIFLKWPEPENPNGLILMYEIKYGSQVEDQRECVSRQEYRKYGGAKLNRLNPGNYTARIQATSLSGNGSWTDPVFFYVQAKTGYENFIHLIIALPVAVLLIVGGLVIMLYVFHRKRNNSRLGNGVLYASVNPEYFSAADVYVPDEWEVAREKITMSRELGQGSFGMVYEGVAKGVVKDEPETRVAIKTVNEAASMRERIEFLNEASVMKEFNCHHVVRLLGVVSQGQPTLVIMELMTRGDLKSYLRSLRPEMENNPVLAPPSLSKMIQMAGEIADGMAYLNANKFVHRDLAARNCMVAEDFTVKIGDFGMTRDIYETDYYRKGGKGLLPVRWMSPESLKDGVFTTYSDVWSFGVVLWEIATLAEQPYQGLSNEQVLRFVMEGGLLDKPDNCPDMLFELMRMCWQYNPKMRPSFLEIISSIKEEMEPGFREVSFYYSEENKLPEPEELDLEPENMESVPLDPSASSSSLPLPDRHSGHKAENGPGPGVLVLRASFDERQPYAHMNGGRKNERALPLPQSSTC
T6 sequence (P35968 20-1356): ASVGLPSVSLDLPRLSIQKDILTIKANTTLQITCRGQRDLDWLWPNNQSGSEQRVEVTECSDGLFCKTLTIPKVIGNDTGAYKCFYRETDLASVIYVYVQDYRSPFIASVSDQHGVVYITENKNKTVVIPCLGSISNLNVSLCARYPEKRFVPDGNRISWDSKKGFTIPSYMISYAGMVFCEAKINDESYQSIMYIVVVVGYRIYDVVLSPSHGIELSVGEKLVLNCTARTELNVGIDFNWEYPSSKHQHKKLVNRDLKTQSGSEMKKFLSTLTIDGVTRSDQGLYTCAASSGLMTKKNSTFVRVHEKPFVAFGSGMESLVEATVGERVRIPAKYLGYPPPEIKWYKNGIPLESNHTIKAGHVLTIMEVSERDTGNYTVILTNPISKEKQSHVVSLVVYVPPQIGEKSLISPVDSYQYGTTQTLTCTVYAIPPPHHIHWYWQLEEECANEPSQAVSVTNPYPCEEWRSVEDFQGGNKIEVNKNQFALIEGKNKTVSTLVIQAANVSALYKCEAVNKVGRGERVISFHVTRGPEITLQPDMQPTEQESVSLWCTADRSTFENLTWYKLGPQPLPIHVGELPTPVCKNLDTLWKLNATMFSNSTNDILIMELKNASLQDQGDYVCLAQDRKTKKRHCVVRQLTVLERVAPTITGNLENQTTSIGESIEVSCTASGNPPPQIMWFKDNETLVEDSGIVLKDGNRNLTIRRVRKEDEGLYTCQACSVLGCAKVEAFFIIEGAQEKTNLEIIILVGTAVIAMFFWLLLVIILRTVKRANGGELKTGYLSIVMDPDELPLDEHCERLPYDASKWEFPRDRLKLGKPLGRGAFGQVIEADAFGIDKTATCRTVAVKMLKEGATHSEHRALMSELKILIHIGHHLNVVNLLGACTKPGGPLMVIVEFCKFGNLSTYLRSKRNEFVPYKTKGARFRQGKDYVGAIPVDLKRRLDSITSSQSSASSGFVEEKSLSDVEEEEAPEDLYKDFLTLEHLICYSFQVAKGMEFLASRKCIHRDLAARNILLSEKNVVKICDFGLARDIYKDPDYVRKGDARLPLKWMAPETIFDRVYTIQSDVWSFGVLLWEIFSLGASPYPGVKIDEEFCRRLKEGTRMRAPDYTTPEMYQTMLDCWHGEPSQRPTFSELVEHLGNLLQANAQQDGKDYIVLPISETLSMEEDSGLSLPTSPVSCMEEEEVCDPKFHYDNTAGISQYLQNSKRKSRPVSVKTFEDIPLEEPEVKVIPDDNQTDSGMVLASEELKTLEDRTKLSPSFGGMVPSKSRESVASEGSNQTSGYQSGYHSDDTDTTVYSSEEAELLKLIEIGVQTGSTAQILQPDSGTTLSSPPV
T3 sequence (Q15303 26-1308): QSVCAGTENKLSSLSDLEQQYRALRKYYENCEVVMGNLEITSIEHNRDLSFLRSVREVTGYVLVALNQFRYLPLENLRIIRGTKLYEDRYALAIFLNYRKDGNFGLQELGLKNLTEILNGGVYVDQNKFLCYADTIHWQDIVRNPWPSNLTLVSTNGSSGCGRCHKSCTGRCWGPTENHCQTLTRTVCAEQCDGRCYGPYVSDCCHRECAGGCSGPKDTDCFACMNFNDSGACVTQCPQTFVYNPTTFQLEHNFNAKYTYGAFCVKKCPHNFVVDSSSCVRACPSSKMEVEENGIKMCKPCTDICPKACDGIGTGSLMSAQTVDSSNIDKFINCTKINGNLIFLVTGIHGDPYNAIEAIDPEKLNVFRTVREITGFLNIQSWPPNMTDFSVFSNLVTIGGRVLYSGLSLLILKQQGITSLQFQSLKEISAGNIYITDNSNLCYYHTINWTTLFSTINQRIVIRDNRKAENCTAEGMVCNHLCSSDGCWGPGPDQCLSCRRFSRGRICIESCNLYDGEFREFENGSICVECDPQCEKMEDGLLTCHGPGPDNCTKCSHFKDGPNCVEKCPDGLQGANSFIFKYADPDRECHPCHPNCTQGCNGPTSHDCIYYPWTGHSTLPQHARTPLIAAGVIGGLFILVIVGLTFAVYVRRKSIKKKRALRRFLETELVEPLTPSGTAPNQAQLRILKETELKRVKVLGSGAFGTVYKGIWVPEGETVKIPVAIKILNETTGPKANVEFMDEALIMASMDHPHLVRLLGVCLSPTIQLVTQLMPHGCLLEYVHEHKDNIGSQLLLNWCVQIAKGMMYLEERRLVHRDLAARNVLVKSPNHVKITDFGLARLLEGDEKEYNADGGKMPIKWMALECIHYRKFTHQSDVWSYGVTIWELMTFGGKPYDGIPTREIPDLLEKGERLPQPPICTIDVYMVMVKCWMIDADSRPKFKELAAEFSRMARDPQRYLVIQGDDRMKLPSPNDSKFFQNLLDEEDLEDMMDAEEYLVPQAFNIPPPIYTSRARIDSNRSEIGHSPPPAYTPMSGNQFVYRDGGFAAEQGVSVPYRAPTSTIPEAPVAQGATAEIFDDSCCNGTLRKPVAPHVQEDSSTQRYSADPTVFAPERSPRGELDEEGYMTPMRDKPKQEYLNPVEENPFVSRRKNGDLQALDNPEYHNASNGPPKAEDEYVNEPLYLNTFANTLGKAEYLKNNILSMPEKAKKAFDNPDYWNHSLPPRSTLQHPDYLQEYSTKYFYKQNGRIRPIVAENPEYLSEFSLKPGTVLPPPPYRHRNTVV
T7 sequence (P16234 24-1089): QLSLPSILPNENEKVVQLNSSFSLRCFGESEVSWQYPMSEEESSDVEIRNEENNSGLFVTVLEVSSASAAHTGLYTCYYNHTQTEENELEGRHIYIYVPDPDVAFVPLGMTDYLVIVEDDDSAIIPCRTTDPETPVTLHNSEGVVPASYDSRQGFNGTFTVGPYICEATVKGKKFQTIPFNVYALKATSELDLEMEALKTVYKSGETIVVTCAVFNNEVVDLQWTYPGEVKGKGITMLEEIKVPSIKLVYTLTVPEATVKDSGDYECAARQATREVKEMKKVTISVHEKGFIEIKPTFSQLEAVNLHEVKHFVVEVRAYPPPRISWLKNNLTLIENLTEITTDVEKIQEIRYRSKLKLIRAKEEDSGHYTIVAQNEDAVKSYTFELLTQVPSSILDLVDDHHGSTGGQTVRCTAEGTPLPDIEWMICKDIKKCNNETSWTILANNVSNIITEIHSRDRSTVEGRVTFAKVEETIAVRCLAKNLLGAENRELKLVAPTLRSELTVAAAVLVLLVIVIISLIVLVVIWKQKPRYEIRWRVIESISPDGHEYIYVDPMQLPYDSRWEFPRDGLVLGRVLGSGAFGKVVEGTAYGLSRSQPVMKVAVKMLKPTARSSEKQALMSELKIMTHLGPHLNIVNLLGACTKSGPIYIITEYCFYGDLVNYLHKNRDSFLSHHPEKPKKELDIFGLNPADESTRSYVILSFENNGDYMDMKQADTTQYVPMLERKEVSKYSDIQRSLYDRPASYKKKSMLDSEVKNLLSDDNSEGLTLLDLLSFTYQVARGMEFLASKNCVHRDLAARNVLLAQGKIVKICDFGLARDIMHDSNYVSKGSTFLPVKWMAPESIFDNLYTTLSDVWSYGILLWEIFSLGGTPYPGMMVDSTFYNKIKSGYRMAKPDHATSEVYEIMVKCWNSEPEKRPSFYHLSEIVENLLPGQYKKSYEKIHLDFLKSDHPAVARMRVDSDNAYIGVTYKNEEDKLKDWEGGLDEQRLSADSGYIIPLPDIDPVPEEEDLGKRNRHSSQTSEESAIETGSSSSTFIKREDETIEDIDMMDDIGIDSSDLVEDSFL

Compound	inhibition at 0.01 µM (EGFR) [%]	inhibition at 0.01 µM (HER-2) [%]	inhibitory activity in relation to HER-4, in words (HER-4; 10 nM)	inhibition at 0.01 µM (HER-4) [%]	inhibition at 0.01 µM (IGF1R) [%]	inhibition at 0.01 µM (InsR) [%]	inhibition at 0.01 µM (KDR (VEGFR2)) [%]	inhibition at 0.01 µM (PDGFRa) [%]	inhibition at 0.01 µM (PDGFRb) [%]	melting point [°C]	further results
Cc1cn(-c2cc(NC(=O)c3ccc(CN4CCN(C(=O)c5cccc(F)c5)CC4)cc3)cc(C(F)(F)F)c2)cn1 [Compound 28k, 4-{[4-(3-Fluorobenzoyl)piperazin-1-yl]methyl}-N-[3-(4-methyl-1H-imidazol-1-yl)-5-(trifluoromethyl)phenyl]benzamide]	0	0	comparable to imatinib	43	0	33	23	0	2	90 to 93	IC50 [1]: 3.6 µM; IC50 [2]: 38.5 µM; inhibition at 100 µM [3]: 3.14%
Cc1ccc(NC(=O)c2ccc(CN3CCN(C)CC3)cc2)cc1Nc1nccc(-c2cccnc2)n1 [Imatinib, reference compound]	0	0	–	42	0	36	0	56	75	–	inhibition at 100 µM [3]: 13.4%
CNC(=O)c1cc(Oc2ccc(NCc3ccc(C(=O)Nc4cccc(C(F)(F)F)c4)cc3)cc2)ccn1 [Compound 20, 4-{[(4-{[2-(Methylcarbamoyl)pyridin-4-yl]oxy}phenyl)amino]methyl}-N-[3-(trifluoromethyl)phenyl]benzamide]	56	0	comparable to imatinib	57	18	0	48	77	28	170 to 171	–
CCOC(=O)CC[C@H](NC(=O)c1ccc(CNc2ccc(Oc3ccnc(C(=O)NC)c3)cc2)cc1)C(=O)OCC [Compound 21, Diethyl (4-(((4-((2-(methylcarbamoyl)pyridin-4-yl)oxy)phenyl)amino)methyl)benzoyl)glutamate]	–	–	–	–	–	–	–	–	–	162 to 164	–
O=C(Nc1cccc(C(F)(F)F)c1)c1ccc(CNc2nccc(-c3cccnc3)n2)cc1 [Compound 24, 4-({[4-(Pyridin-3-yl)pyrimidin-2-yl]amino}methyl)-N-[3-(trifluoromethyl)phenyl]benzamide]	24	0	comparable to imatinib	44	0	0	2	0	0	138 to 141	–
COC(=O)c1ccc(N)c(NC(=O)c2ccc(CNc3cc([N+](=O)[O-])ccc3C)cc2)c1 [Compound 19, Methyl 4-amino-3-[(4-{[(2-methy-5-nitrophenyl)amino]methyl}benzoyl)amino]benzoate]	–	–	–	–	–	–	–	–	–	208 to 210	IC50 [1]: 64 µM; IC50 [2]: > 100 µM; inhibition at 100 µM [3]: 10%

Further lines, with some results ahead:

inhibition at 0.01 µM (EGFR) [%]	inhibition at 0.01 µM (HER-2) [%]	inhibitory activity in relation to HER-4, in words (HER-4; 10 nM)	inhibition at 0.01 µM (HER-4) [%]	inhibition at 0.01 µM (IGF1R) [%]	inhibition at 0.01 µM (InsR) [%]	inhibition at 0.01 µM (KDR (VEGFR2)) [%]	inhibition at 0.01 µM (PDGFRa) [%]	inhibition at 0.01 µM (PDGFRb) [%]	melting point [°C]	Compound	further results
–	–	–	–	–	–	–	–	–	175 to 176	Cc1ccc([N+](=O)[O-])cc1NC(=O)c1ccc(CNc2nccc(-c3cccnc3)n2)cc1 [Compound 25, 4-({[4-(Pyridin-3-yl)pyrimidin-2-yl]amino}methyl)-N-{[(2-methyl-5-nitrophenyl) benzoate]	–
–	–	comparable to imatinib	–	–	–	–	–	–	–	N-(3-(4-methyl-1H-imidazol-1-yl)-5-(trifluoromethyl)phenyl)-4-(((4-(pyridin-2-yl)pyrimidin-2-yl)amino)methyl)benzamide [Compound 22]	% Inhibition at 10 nM, EGFR (EGFR; 10 nM): 21%; % Inhibition at 10 nM, HER-2 (HER-2; 10 nM): 0%; % Inhibition at 10 nM, HER-4 (HER-4; 10 nM): 49%; % Inhibition at 10 nM, IGF1R (IGF1R; 10 nM): 0%; % Inhibition at 10 nM, InsR (InsR; 10 nM): 0%; % Inhibition at 10 nM, KDR (KDR (VEGFR2)): 28%; % Inhibition at 10 nM, PDGFRa (PDGFRa; 10 nM): 0%; % Inhibition at 10 nM, PDGFRb (PDGFRb; 10 nM): 0%
0	14	comparable to imatinib	56	0	0	24	67	13	169 to 171	Cc1ccc([N+](=O)[O-])cc1NCc1ccc(C(=O)Nc2cccc(C(F)(F)F)c2)cc1 [Compound 18, 4-{[(2-Methyl-5-nitrophenyl)amino]methyl}-N-[3-(trifluoromethyl)phenyl]benzamide]	–
–	–	–	–	–	–	–	–	–	127 to 129	CCOC(=O)CC[C@H](NC(=O)c1ccc(CNc2cc([N+](=O)[O-])ccc2C)cc1)C(=O)OCC [Compound 16, Diethyl (4-(((2-methyl-5-nitrophenyl)amino)methyl)benzoyl)glutamate]	–
0	0	–	0	0	49	0	0	0	231 to 233	CNC(=O)c1cc(Oc2ccc(NC(=O)c3ccc(CNc4cc([N+](=O)[O-])ccc4C)cc3)cc2)ccn1 [Compound 17, 4-{[(2-Methyl-5-nitrophenyl)amino]methyl}-N-(4-{[2-(methylcarbamoyl)pyridin-4-yl]oxy}phenyl) benzoate]	selectivity for the gene insulin receptor, in words (InsR; 10 nM, panel of eight receptor tyrosine kinases): high selectivity
